# Where a name gives a salt, the structure may show the parent alone.
# Assays:
# [1] = tested on: TNF-alpha production by LPS-stimulated THP-1 cells; assay: Effect on the production of soluble TNF-alpha by LPS-stimulated THP-1 cells; assay type: cell-based; details: Homo sapiens, 30 min pre-incubation, 100 ng/ml LPS for 4 hours, ELISA
# Experimental: The effect on the production of soluble TNF-alpha by LPS-stimulated THP-1 cells can be determined as follows: Tissue culture medium used is RPM 1640 (Gibco cat #11875-036) containing 10% fetal calf serum, 1% penicillin and streptomycin. TBP-1 cells (ATCC #202-TIB) at 1×10+5 cells/well are added to 100 μl medium or test compound. Cells are pre-incubated with compound for 30 minutes in a 37° C. humidified chamber with 5% CO2 and then stimulated with 100 ng/ml of LPS (Sigma cat #L-4391) for 4 hours. Plates are then centrigued and […] of conditioned medium for TNF analysis is harvested. The amount of TNF-alpha in control and test cultures is determined by ELISA using recombinant TNF-alpha for the standard curve, using TNF ELISA plates (Genzyme) for TNF analysis. Absorbance readings and data calculations are performed on a Molecular Devices plate reader. Results are expressed in IC50 's of test compound.
# [2] = tested on: TNF-alpha (synovial fluid); assay: Effect on the synovial fluid concentration of TNF-alpha in an inflamed rat knee; assay type: in vivo, rat (Female lewis); details: 50 mg/Kg p.o., dosed 1-4 h before LPS injected into both knees
# Experimental: The effect on the synovial fluid concentration of TNF-alpha in an inflamed rat knee can be determined as follows: Female lewis rats are dosed by gavage with test compound in 0.1 ml cornstarch vehicle. One to four hours after administration of test compound 0.1 mg Lipopolysaccharide from E. coli 0127:B8 (Difco #3880-25-0) is injected into both knees. Two hours after intra-articular LPS injection, knees are lavaged with 0.1 ml saline and 2 lavages from same rat are pooled. TNF-alpha is measured using mouse TNF-alpha ELISA kit (Genzyme) which crossreacts with rat TNF-alpha Results are expressed as % inhibition of mean TNF-alpha concentration in synovial fluid from saline-injected knees.
# [3] = tested on: collagen-II induced arthritis in mice; assay: Collagen II induced arthritis model in mice; assay type: in vivo; details: mouse, 100 mg/Kg p.o.
# Excerpt: Antiinflammatory activity can be determined in standard inflammation and arthritic animal models well-known in the art, e.g. the adjuvant arthritis model in rats and the collagen II induced arthritis model in mice [Mediators of […]. 1, 273-279 (1992)].
# [4] = target: T1, recombinant human stromelysin (Homo sapiens, UniProt P08254); assay: Inhibition of stromelysin activity (hydrolysis of Substance P); assay type: biochemical; details: 30 min at 37° C.
# T1 construct: recombinant human stromelysin (mol. wt. 45-47 kDa, 2 Units)
# Experimental: One test to determine the inhibition of stromelysin activity is based on its hydrolysis of Substance P using a modified procedure of Harrison et al (Harrison, […]., and Stein R., A semicontinuous, high performance chromatography based assay for stromelysin, Anal. Biochem. 18, 110-113 (1989)). In this assay, Substance P is hydrolyzed by recombinant human stromelysin to generate a fragment, Substance P 7-11, which can be quantitated by HPLC. In a typical assay, a 10 mM stock solution of a compound to be tested is diluted in the assay buffer to 50 μM, mixed 1:1 with 8 μg recombinant human stromelysin (mol. wt. 45-47 kDa, 2 Units; where 1 Unit produces […] of Substance P 7-11 in 30 minutes) and incubated along with 0.5 mM Substance P in a final volume of 0.125 ml for 30 minutes at 37° C. The reaction is stopped by adding 10 mM EDTA and Substance P 7-11 is quantified on RP-8 HPLC. The IC50 for inhibition of stromelysin activity and Ki are calculated from control reaction without the inhibitor.
# [5] = target: T2, Human recombinant fibroblast collagenase (Homo sapiens, UniProt P03956); assay: Collagenase activity (digestion of bovine type I collagen); assay type: biochemical; details: 2 hours at 35° C., read-out: IC50 for inhibition of collagenase activity
# T2 sequence (P03956 100-469): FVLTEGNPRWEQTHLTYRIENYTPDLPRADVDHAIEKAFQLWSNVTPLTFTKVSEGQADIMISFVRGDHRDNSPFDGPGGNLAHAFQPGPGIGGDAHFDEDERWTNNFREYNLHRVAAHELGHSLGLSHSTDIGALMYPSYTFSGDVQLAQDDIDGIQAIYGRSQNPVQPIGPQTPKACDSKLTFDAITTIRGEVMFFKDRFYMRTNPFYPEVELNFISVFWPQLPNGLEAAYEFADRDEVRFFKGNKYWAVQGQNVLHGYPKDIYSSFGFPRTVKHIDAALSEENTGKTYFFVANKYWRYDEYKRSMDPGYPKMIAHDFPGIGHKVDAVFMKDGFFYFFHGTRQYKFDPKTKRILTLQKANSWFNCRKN
# Experimental: Collagenase activity is determined as follows: ninety six-well, flat-bottom microtiter plates are first coated with bovine type I collagen (35 ug/well) over a two-day period at 30° C. using a humidified and then dry atmosphere; plates are rinsed, air dried for 34 hours, sealed with Saran wrap and stored in a refrigerator. Human recombinant fibroblast collagenase and a test compound (or buffer) are added to wells (total volume =0.1 ml) and plates are incubated for 2 hours at 35° C. under humidified conditions; the amount of collagenase used per well is that causing approximately 80% of maximal digestion of collagen. The incubation media are removed from the wells, which are then rinsed with buffer, followed by water. Coomasie blue stain is added to the wells for 25 minutes, removed, and wells are again rinsed with water. Sodium dodecyl sulfate (20% in 50% dimethylformamide in water) is added to solubilize the remaining stained collagen and the optical density at 570 nm wave length is measured. The decrease in optical density due to collagenase (from that of collagen without enzyme) is compared to the decrease in optical density due to the enzyme in the presence of test compound, and percent inhibition of enzyme activity is calculated. IC50's are determined from a range of concentrations of inhibitors (4-5 concentrations, each tested in triplicate), and Ki values are calculated.
# TNF-alpha (plasma) = assay: Effect on the plasma concentration of TNF-alpha in the mouse following intravenous injection of endotoxin; assay type: in vivo, mouse (Female Balb-CbyJ); details: about 50 mg/Kg p.o., dosed 1-4 h before 0.1 mg/kg LPS i.v.
# Experimental: The effect on the plasma concentration of TNF-alpha in the mouse following intravenous injection of endotoxin can be determined as follows:
# Female Balb-CbyJ mice are dosed by gavage with test compound in 0.1 ml cornstarch vehicle/10 grams body weight. One to four hours after administration of test compound, 0.1 mg/kg Lipopolysaccharide from E. coli 0127:B8 (Difco #3880-25-0) in saline is injected i.v. One hour after i.v. injection of LPS, blood is collected for determination of plasma TNF-alpha using mouse TNF-alpha ELISA kit (Genzyme). Eight mice are used per treatment group. Results are expressed as % inhibition of mean TNF-alpha concentration in control mice.
# T1 sequence (P08254 100-477): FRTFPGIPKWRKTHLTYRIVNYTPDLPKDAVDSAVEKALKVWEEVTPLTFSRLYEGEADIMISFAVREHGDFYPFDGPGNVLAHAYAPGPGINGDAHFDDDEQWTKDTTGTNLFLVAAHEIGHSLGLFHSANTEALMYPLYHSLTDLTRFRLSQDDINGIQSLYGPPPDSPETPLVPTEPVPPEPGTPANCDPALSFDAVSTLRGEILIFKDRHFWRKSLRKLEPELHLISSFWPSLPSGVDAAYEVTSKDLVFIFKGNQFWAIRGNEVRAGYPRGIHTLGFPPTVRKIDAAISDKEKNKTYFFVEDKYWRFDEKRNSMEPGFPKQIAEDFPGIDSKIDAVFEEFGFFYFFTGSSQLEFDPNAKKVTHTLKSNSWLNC
smiles,measurement,setting,value
"CCCO[C@H]1CC[C@H]([C@H](C(=O)NO)N(Cc2ccncc2)S(=O)(=O)c2ccc(OCC)cc2)CC1.Cl [2(u), N-hydroxy-2(R)-[(4ethoxybenzenesulfonyl)(4-picolyl)amino]-2-(trans-4-propoxycyclohexyl)acetamide hydrochloride]",IC50,[1],~2500 nM
same,reduction of TNF-α concentration in the synovial fluid,[2],~98%
same,inhibition of collagen-II induced arthritis in mice,[3],effective in inhibiting collagen-II induced arthritis
same,IC50,[4],~11 nM
same,IC50,[5],~45 nM
"CCCO[C@H]1CC[C@H]([C@H](C(=O)NO)N(Cc2ccncc2)S(=O)(=O)c2ccc(OC)cc2)CC1 [Example 1, hydrochloride]",IC50,[1],~2500 nM
same,% inhibition of mean plasma TNF-alpha concentration in control mice,TNF-alpha (plasma),50%
same,reduction of TNF-α concentration in the synovial fluid,[2],about 70%
same,inhibition of collagen-II induced arthritis in mice,[3],effective in inhibiting collagen-II induced arthritis
same,IC50,[4],~16 nM
same,IC50,[5],~80 nM

# Source: patent US5770624A, “Certain alpha-substituted arylsulfonamido acetohydroxamic acids” (priority 1996, dated 1998)
